Data taken from patent US7250258B2 (priority 2003, dated 2007).

Columns and labels:
AD patients [1] = conditions: presence of the ApoE4 allele; cited from earlier work
AD patients [2] = conditions: galantamine therapy; cited from earlier work
[3] = test system: Caucasian patients diagnosed with Alzheimer's Disease; assay: Clinical association of CDK5 haplotype copy number with galantamine response (ΔADAS-cog responder vs non-responder, logistic regression); assay type: in vivo, human
Description: Following 3, 5, 6 or 12 months of treatment in the GAL-INT2, GAL-USA 10, GAL-INT-1 and SAB-USA-25 trials, respectively, the severity of symptoms in patients were evaluated using the cognitive subscale of the Alzheimer's Disease Assessment Scale (ADAS-cog) (Rosen et al., supra; Rockwood et al., supra; Tariot et al., supra; Wilcock et al., supra). The ADAS-cog measures cognitive function, including spoken language ability, comprehension of spoken language, recall of test instructions, word-finding difficulty in spontaneous speech, following commands, naming objects and fingers, constructional praxis, ideational praxis, orientation, word-recall task and word-recognition task (Alzheimer's Insights Online, supra).
For the clinical association study described in Example 2 below, 174 patients were selected and used to populate two groups in a tailed sampling strategy, intended to enrich alleles correlating with drug response in the population. […] Patients were assigned to responder and non-responder groups based on having a change in ADAS-cog score (ΔADAS-cog) that met a cut-off value that was chosen based on the differences in treatment times in the four clinical trials described above. The ΔADAS-cog cut-off values and treatment times used for each responder and non-responder group from each of the four clinical trials are shown in Table 6 below.
The statistical analyses compared ΔADAS-cog in patients with one copy vs. zero copies, two copies vs. zero copies, and two copies vs. one copy (within a patient's genome) of a particular allele, using a logistic regression analysis on two-degrees of freedom to associate clinical response with a particular haplotype. The following covariates were also included: age, gender, history, smoking, ADAS-cog baseline, dose (BID), body mass index, and CYP2D6. The logistic regression included assessment of associations between the haplotypes and the binary outcome of clinical response.
For the results obtained on the analyses, adjustments were made for multiple comparisons, using a permutation test (MULTIVARIATE PERMUTATION TESTS: WITH APPLICATIONS IN BIOSTATISTICS, Pesarin, John Wiley and Sons, New York, 2001). In this test, a sub-haplotype's data for each observation were kept constant, while all the remaining variables (outcome and covariates) were randomly permuted so that covariates always stayed with the same outcome. The permutation model was fitted for each of the several haplotypes, and the lowest p-value was kept. In total, 1000 permutations were done.

SMILES | response to treatment in presence of ApoE4 polymorphism (AD patients [1]) | most common side effects (AD patients [2]) | Subject Count for Haplotype with Highest Level Response ([3]; haplotype (1), 0 copies, of 41 subjects) | Subject Count for Haplotype with Highest Level Response ([3]; haplotype (1), 1 copy, of 88 subjects) | Subject Count for Haplotype with Highest Level Response ([3]; haplotype (1), 2 copies, of 45 subjects) | Subject Count for Haplotype with Highest Level Response ([3]; haplotype (2), 0 copies, of 41 subjects) | Subject Count for Haplotype with Highest Level Response ([3]; haplotype (2), 1 copy, of 88 subjects) | Subject Count for Haplotype with Highest Level Response ([3]; haplotype (2), 2 copies, of 45 subjects)
Nc1c2c(nc3ccccc13)CCCC2 [tacrine] | reduced response to treatment | – | – | – | – | – | – | –
COc1ccc2c3c1O[C@H]1C[C@@H](O)C=C[C@@]31CCN(C)C2 [galantamine] | – | nausea, vomiting, diarrhea, dizziness and anorexia | 26 (0) | 46 (1) | 13 (2) | 26 (0) | 46 (1) | 13 (2)
